Data as given in patent US7629366B2, “Aminoalcohol derivatives” (Fujisawa Pharmaceutical Co., Ltd., priority 2002, dated 2009).

These molecules were tested on increase in intravesical pressure induced by carbachol in anesthetized dog (assay: Effect on the increase in intravesical pressure induced by carbachol in anesthetized dog). Conditions: 0.032 mg/kg intravenously, 30 minutes before carbachol (1.8 μg/kg); female Beagle dogs under halothane anesthesia.
Assay type: in vivo
Method: Effect on the increase in intravesical pressure induced by carbachol in anesthetized dog
Female Beagle dogs weighing 8.0-15.0 kg were fasted for 24 hours and maintained under halothane anesthesia. A 12F Foley catheter was lubricated with water soluble jelly, inserted into the urethral orifice and advanced approximately 10 cm until the balloon tip was placed well inside the bladder. The balloon was then inflated with 5 ml of room air and catheter slowly withdrawn just part the first resistance that is felt at the bladder neck. Urine was completely drained out through the catheter, and 30 ml of biological saline was infused. The catheter was connected to pressure transducer, and intravesical pressure (IVP) was continuously recorded. The test compound was administered intravenously at 30 minutes before the administration of carbachol (1.8 μg/kg). Percent inhibition of IVP increase by test compound was calculated by dividing IVPa (IVP increase induced by carbachol after test compound administration) by IVPb (IVP increase induced by carbachol just before test compound administration).
With COc1cc(-c2ccc(C[C@@H](C)NC[C@H](O)c3cccnc3)cc2)ccc1C(=O)O.Cl.Cl [Test Compound (4), 4′-[(2R)-2-[[(2R)-2-Hydroxy-2-(3-pyridyl)ethyl]amino]-propyl]-3-methoxy-1,1′-biphenyl-4-carboxylic acid dihydrochloride] the “Percent inhibition of IVP increase” value was 96%.
For Cc1cc(C(=O)O)ccc1-c1ccc(CCNC[C@H](O)c2cccnc2)cc1.Cl.Cl [Test Compound (3), 4′-[2-[[(2R)-2-Hydroxy-2-(3-pyridyl)ethyl]amino]ethyl]-2-methyl-1,1′-biphenyl-4-carboxylic acid dihydrochloride], the “Percent inhibition of IVP increase” value was 86%.
For COc1cc(-c2ccc(C[C@@H](C)NC[C@H](O)c3ccccc3)cc2)ccc1C(=O)O.Cl [Test Compound (1), 4′-[(2R)-2-[[(2R)-2-Phenyl-2-hydroxyethyl]amino]-propyl]-3-methoxy-1,1′-biphenyl-4-carboxylic acid hydrochloride], the “Percent inhibition of IVP increase” value was 93%.
In the case of Cc1c(C(=O)O)ccc(-c2ccc(CCNC[C@H](O)c3cccc(Cl)c3)cc2)c1C.Cl [Test Compound (2), 4′-[2-[[(2R)-2-(3-Chlorophenyl)-2-hydroxyethyl]amino]-ethyl]-2,3-dimethyl-1,1′-biphenyl-4-carboxylic acid hydrochloride], the “Percent inhibition of IVP increase” value is reported as 91%.
